Measured values taken from patent US20070219208A1, “Methods for Treating Cancer” (priority 2006, published 2007).

Legend:
Type in all cases: cell-based
iNOS in MCF-7 cells = test: iNOS mRNA (RT-PCR) and protein (Western) levels; conditions: mevalonate 20 μM
Protocol: After treatment with statins, cells were washed with ice-cold DPBS and resuspended in 150 μl of radioimmune precipitation assay buffer (20 mM Tris-HCl, pH 7.4, 2.5 mM EDTA, 1% Triton X-100, 1% sodium deoxycholate, 1% SDS, 100 mM NaCl, 100 mM sodium fluoride) containing 1 mM sodium vanadate, 10 μg/ml aprotinin, 10 μg/ml leupeptin, and 10 μg/ml pepstatin inhibitors. Cells were homogenized by passing the suspension through a 25-gauge needle (20 strokes). The lysate was centrifuged at 750×g for 10 min at 4° C. to pellet out the nuclei. The remaining supernatant was centrifuged for 30 min at 12,000×g. Protein was determined using the Lowry method and 50 μg of the lysate was used for the Western blot analysis. Proteins were resolved using the SDS-polyacrylamide gels and blotted onto nitrocellulose membranes. Membranes were washed with TBS (140 mM NaCl, 50 mM Tris-HCl, pH 7.2) containing 0.1% Tween 20 (TBST) and 5% skim milk to block the non-specific protein binding. Membranes were incubated with 1 μg/ml rabbit anti-iNOS polyclonal antibody (Abeam, Cambridge, Mass.), mouse anti-cyclin D1 antibody, mouse anti-cyclin E antibody (BD Biosciences, San Jose, Calif.) or rabbit anti-p27 antibody (Chemicon International, Temecula, Calif.) in TBST for overnight at 4° C., washed 5 times with TBST, and then incubated with goat anti-rabbit or rabbit anti-mouse IgG-horseradish peroxidase-conjugated secondary antibody (1:5,000) for 1.5 h at room temperature. The band was detected using the ECL method (Amersham Biosciences).
Following the treatments, medium was aspirated and 1 ml of TRIzol reagent (Invitrogen) was added and total RNA was extracted using the manufacturer's protocol. Five μg of RNA was used for the first strand cDNA synthesis using a first strand cDNA synthesis kit (Amersham Biosciences). […]

MCF-7 cells [1] = test: Cell cycle analysis by flow cytometry; conditions: 1400 W 10 μM, mevalonate 20 μM
Protocol: For DNA content analysis, harvested cells were centrifuged at 1,000×g for 5 min, fixed by the gradual addition of ice-cold 70% ethanol, and washed with PBS. Cells were then treated with RNase (10 μg/mL) for 30 min at 37° C., washed once with PBS, and resuspended and stained in 1 mL of 69 μmol/L propidium iodide in 38 mmol/L sodium citrate for 30 min at room temperature. The cell cycle phase distribution was determined by analytic DNA flow cytometry as described in (Vindelov L, et al. Methods Cell Biol, 33:127-37, 1990). The percentage of cells in each phase of the cell cycle was analyzed using a Modfit software (Verity Software House, Topsham, Me.).
As NO has previously been reported to exert tumor cell cycle alterations (Pervin S, et al. Natl Acad Sci USA 98:3583-3588, 2001), we investigated the cytostatic effect of statins in MCF-7 cells. MCF-7 cells were treated with simvastatin and fluvastatin for […] in the presence and absence of 1400 W (10 μM) and mevalonate (20 μM). Cell cycle progression was examined using FACScan flow cytometry analysis. […] As cell cycle progression from […] involves activations of the cell regulatory proteins, cyclins D and E, we investigated the effects of statins and iNOS inhibitor on the cell cycle proteins. […]

MCF-7 cells [2] = test: 3H-thymidine uptake (DNA synthesis / cell proliferation); conditions: mevalonate 20 μM with simvastatin or fluvastatin
Protocol: Thymidine Uptake Studies:
DNA synthesis was measured by monitoring the uptake of tritiated thymidine, [^3H]TdR (Perkin-Elmer, Boston, Mass.). Cells (5×10^5/ml) were cultured with different concentrations of simvastatin or fluvastatin (0-10 μM) in the presence or absence of mevalonate (20 μM), 1400 W, or sepiapterin. Cells were pulse-chased with [^3H]TdR [0.5 μCi (0.185 MBq)/well during the last 3 h of a 24 h culture, harvested onto glass filters with an automatic cell harvester (Cambridge Technology, Cambridge, Mass.), and counted using the LKB Betaplate scintillation counter (Wallac, Gaithersburg, Md.). All experiments were performed in triplicate and repeated three times.

MCF-7 cells [3] = test: Soft agar assay for colony formation (anchorage-independent growth); conditions: 1400 W 10 μM or mevalonate 20 μM with statin 10 μM
Protocol: Soft Agar Assay for Colony Formation:
After cells were treated with various conditions, they were seeded in six-well plates. The plates were first covered with phenol red-free MEM containing 0.6% agar and 10% FBS. The middle layer contained cells (5×10^3) in phenol red-free MEM with 0.35% agar and 10% FBS. The top layer, consisting of the medium, was added to prevent drying of the agar in the plates. The plates were incubated for 21 days, after which the plates were stained in 0.5 ml of 0.005% crystal violet for 1 h and the cultures were inspected and photographed. The colony efficiency (CE) was determined by a count of the number of colonies greater than […] in diameter, which was calculated as the average of colonies counted at 50× magnification in five individual fields manually (Liu S, et al. Oncogene, 23:1256-62, 2004).
The long-term effects of statins and the inhibitors on the proliferation and survival of MCF-7 cells were determined using clonogenic assays (Ramanathan B, et al. Cancer Res, 65:8455-60, 2005). The extent of malignancy of cells corresponds to the attainment of anchorage-independent growth (Liu S, et al. Oncogene, 23:1256-62, 2004). MCF-7 cells were treated with simvastatin or fluvastatin in the presence or absence of either 1400 W or mevalonate or sepiapterin. In separate experiments, cells were treated with either GGTI-298 or FTI-277. At the end of the treatments, approximately 5×10^3 cells were seeded onto a soft agar to determine their clonogenic efficiency after 21 days. […] In the presence of either 1400 W or mevalonate, the colony formation was restored in statin-treated cells (FIG. 6B).

CC(O)(CCO)CC(=O)O (stereo not shown) [mevalonate]
effect on statin-induced iNOS (iNOS in MCF-7 cells): inhibited | effect on statin-induced cell cycle alterations (MCF-7 cells [1]): almost completely reversed | effect on statin inhibition of 3H-thymidine uptake (MCF-7 cells [2]): partially reversed | colony formation in statin-treated cells in the presence of modulator (MCF-7 cells [3]): restored
